Reference: US12576169B2, “Silicon-fluoride acceptor substituted radiopharmaceuticals and precursors thereof” (Technische Universität München, priority 2019, dated 2026)
Read-outs that look alike come from different tables or passages of the source. *1 amine or outer side, *2 acyl side, *3 side chain or, on linkers, in order; H or OH if unused. Where a SMILES comes first, the peptide text is derived from it. Side-chain parts run from the residue outwards. [ ]: non-standard residue; d: D form. The star is where a group is joined. X1 = O=C(O)CC[C@H](NC(=O)N[C@@H](CCC(=O)N[C@H](CCCN*)C(=O)O)C(=O)O)C(=O)O; Benzoyl(4-SiFtBu2) = CC(C)(C)[Si](F)(c1ccc(C(=O)*)cc1)C(C)(C)C; dCit = NC(=O)NCCC[C@@H](N)C(=O)O; Suc = O=C(CCC(=O)[*:2])[*:1]; dOrn = NCCC[C@@H](N)C(=O)O; dDap = NC[C@@H](N)C(=O)O

Assays:
[1] = biological target: HSA (Homo sapiens, UniProt P02768); settings: cited from earlier work; for Lit. HSA binding: literature values (Yamazaki, Kanaoka 2004); for Log K HSA: logarithmic K of HSA binding literature values
HSA, sequence (P02768 25-609): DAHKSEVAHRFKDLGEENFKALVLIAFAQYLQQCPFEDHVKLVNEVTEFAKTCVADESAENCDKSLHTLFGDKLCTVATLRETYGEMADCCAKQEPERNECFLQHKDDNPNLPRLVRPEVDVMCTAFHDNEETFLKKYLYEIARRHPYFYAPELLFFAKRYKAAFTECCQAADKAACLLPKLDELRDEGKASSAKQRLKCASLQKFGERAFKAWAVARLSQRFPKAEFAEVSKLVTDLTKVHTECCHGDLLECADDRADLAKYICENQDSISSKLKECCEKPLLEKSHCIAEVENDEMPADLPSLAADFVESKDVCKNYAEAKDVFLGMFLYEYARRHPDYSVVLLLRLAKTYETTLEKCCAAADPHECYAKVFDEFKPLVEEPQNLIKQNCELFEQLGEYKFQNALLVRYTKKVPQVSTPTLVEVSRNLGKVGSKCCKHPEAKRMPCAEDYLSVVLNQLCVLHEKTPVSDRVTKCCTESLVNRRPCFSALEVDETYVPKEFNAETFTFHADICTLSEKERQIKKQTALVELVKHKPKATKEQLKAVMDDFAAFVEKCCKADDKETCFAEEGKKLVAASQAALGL

[2] = n-Octanol-PBS partition coefficient (logD7.4); assay type: physicochemical; settings: 18F-labeled ligand; n-octanol/PBS pH=7.4; mean ± SD (n = 5)
Experimental: Approx. 0.5 MBq of the ^18F-labeled SiFA-PSMA ligand were added into a test tube containing n-octanol (500 μL) and PBS (500 μL, pH=7.4). After vigorously shaking the two-phase mixture for 3 min at rt, the test tube was centrifuged at 9.000 rpm for 5 min to achieve quantitative phase separation. Finally, 150 μL of each layer were pipetted off and measured for activity using a gamma counter. After repeating the experiment for at least five times, the n-octanol-PBS partition coefficient log D7.4 was calculated according to following formula.

[3] = test system: LNCaP cells; assay: Internalization of 18F-labeled ligands into LNCaP cells; assay type: cell-based, human; settings: internalized activity at 1 h in % of reference [125I]XII; c = 0.5 nM; LNCaP cells (125.000 cells/well); 37° C., DMEM/F-12 add. 5% BSA; corrected for non-specific binding (10 μm PMPA); mean ± SD (n = 3)
Experimental: LNCaP cells were grown in DMEM/F-12 (add. 10% FCS, v/v) and maintained at 37° C. in a humidified 5% CO2 atmosphere. […] Subsequent to the removal of the culture medium, cells were washed with DMEM-F12 (add. 5% BSA, v/v, 500 μL) and left to equilibrate in DMEM-F12 (add. 5% BSA, v/v, 200 μL) at 37° C. for 15 min. Each well was treated with either DMEM-F12 (add. 5% BSA, v/v, 25 μL) or a 2-(phosphonomethyl)-pentandioic acid (PMPA) solution (100 μM in PBS, 25 μL) for blockade. Afterwards, the ^18F-labeled SiFA-PSMA ligand (5 nM in PBS, 25 μL) was added and the cells were incubated for 1 h at 37° C. The experiment was terminated by placing the 24-well plate on ice for 3 min and removal of the assay medium. Each well was rinsed with HBSS (4° C., 250 μL) and the fractions were combined with the previous assay medium, representing the amount of unbound radioligand. For removal of surface bound activity, LNCaP cells were incubated with PMPA solution (10 μM in PBS, 4° C., 250 μL) for 5 min and rinsed again with PBS (250 μL, 4° C.). The internalized activity was determined by incubation of LNCaP cells with 1 M aq. NaOH (250 μL) for at least 10 min and combination with the fraction of a subsequent wash step with 1 M aq. NaOH (200 μL). Each experiment (control and blockade) was performed in triplicate. […] All internalization studies were accompanied by reference studies using the reference compound XII (2 nM in HBSS add. 1% BSA, v/v), which were performed analogously. Data were corrected for non-specific internalization and normalized to the specific-internalization observed for the radioiodinated reference compound.

[4] = biological target: T1, human serum albumin (HSA) (Homo sapiens, UniProt P02768); assay: Binding to HSA on a Chiralpak HSA column; assay type: in vitro ADME; settings: calibration with nine reference substances
T1 construct: purchased H13H-2433
T1 sequence (P02768 25-609): as above
Experimental: For the determination of human serum albumin (HSA) binding, a Chiralpak HSA column (50×3 mm, 5 μm, H13H-2433) was used at a constant flow rate of 0.5 mL/min. The mobile phase composed of a 50 mM NH4OAc solution in water with pH=7 (solvent C) and isopropanol (solvent D) was freshly prepared for each experiment and used only once. The reference substances (Table 1) as well as the analyzed SiFA-PSMA ligands were dissolved in a mixture of solvent C/solvent D (1:1, v/v, 0.5 mg/mL) and eluted from the HSA column (0-3 min: 100% C, 3-20 min: 20% D in C, λ=254 nm). The column was kept at rt and each run was stopped after detection of the signal to reduce the acquisition time. The nine reference substances display an HSA binding range of 13% to 99% and were injected consecutively in order to establish a sigmoidal calibration curve with the software OriginPro 2018b (FIG. 1).

[5] = biological target: T2, PSMA (Homo sapiens, UniProt Q04609); assay: IC50 determination: PSMA binding affinity, competition with [125I]XII on LNCaP cells
T2 sequence (Q04609 whole entry): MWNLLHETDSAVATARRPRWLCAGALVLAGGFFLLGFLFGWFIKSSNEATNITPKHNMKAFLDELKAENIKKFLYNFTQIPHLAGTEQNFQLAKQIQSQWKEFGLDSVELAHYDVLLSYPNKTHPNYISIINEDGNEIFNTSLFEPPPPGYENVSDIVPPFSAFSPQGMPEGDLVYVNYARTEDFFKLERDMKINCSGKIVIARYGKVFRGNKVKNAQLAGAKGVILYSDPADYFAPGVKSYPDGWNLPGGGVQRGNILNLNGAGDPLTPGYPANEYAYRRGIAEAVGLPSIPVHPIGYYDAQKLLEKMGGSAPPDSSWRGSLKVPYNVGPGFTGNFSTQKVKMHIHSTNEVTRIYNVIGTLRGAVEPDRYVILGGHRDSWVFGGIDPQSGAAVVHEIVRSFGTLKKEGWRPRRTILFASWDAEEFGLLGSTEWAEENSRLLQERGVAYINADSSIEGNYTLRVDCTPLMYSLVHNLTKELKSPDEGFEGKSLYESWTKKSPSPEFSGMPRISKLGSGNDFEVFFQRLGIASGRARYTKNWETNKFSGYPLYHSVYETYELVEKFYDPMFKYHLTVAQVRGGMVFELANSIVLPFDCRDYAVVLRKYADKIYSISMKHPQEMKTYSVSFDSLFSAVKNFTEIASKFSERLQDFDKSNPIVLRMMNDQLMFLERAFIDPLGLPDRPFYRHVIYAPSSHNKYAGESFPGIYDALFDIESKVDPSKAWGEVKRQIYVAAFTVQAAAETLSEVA
Experimental: LNCaP cells were grown in Dulbecco's Modified Eagle Medium/Nutrient Mixture F-12 (DMEM/F-12, add. 10% fetal calf serum (FCS), v/v) and maintained at 37° C. in a humidified 5% CO2 atmosphere. […] After removal of the culture medium, LNCaP cells were treated with HBSS (add. 1% BSA, v/v, 4° C., 500 μL) and subsequently left 15 min on ice for equilibration in HBSS (add. 1% BSA, v/v, 4° C., 200 μL). […] For the control series, HBSS (add. 1% BSA, v/v, 25 μL) was used instead of the SiFA-PSMA ligand solution. Each concentration and the control were prepared in triplicate. After 1 h incubation on ice, the assay medium was removed and cells were washed with HBSS (200 μL, 4° C.). […] NaOH (200 μL) for at least 10 min and the resulting cell lysate was removed. The wells were treated again with 1 M aq. […] The experiment was repeated for at least three times and the IC50 value calculated using the GraphPad PRISM 8.0.2 software (Graphpad Software Inc., La Jolla, United States).

[6] = radiolabeled established inhibitors; literature; cited from earlier work
[7] = biological target: T2, PSMA; settings: PSMA binding affinity; literature; cited from earlier work
[8] = Wangler et al. 2010; cited from earlier work
[9] = LNCaP cells (150.000 cells/well), reference [125I]XII c = 0.2 nM, 1 h, 4° C., HBSS add. 1% BSA, mean ± SD (n = 3)

Molecule | logD7.4 [2] | Internalization [3] [%] | Binding to HSA [4] [%] | IC50 [5, 9] [nM] | also measured
Nc1ccccc1 [Aniline] | – | – | – | – | Lit. HSA binding [1]: 14.06%; Log K HSA [1]: −0.7912
OCc1ccccc1 [Benzyl alcohol] | – | – | – | – | Lit. HSA binding [1]: 13.15%; Log K HSA [1]: −0.8248
COc1ccc(Cl)cc1C(=O)NCCc1ccc(S(=O)(=O)NC(=O)NC2CCCCC2)cc1 [Glibenclamide] | – | – | – | – | Lit. HSA binding [1]: 99.00%; Log K HSA [1]: 1.695
Oc1ccccc1 [Phenol] | – | – | – | – | Lit. HSA binding [1]: 20.69%; Log K HSA [1]: −0.589
CC(C)(C)[Si](F)(c1ccc(C(=O)NC[C@@H](NC(=O)[C@@H](CN)NC(=O)[C@@H](CCC(=O)O)NC(=O)[C@H](N)CCC(=O)O)C(=O)N[C@H](CCCCNC(=O)CCC(=O)NCCC[C@@H](NC(=O)CC[C@H](NC(=O)N[C@@H](CCC(=O)O)C(=O)O)C(=O)O)C(=O)O)C(=O)O)cc1)C(C)(C)C [SiFA-PSMA ligand 03 d] (H-[dE][dE][dDap][dDap](Benzoyl(4-SiFtBu2))[dK]([Suc-X1])-OH) | −3.42 ± 0.05 | 171.82 ± 9.57 | 97.2 | 9.1 ± 0.8 | –
CC(C)(C)[Si](F)(c1ccc(C(=O)NC[C@@H](NC(=O)[C@@H](CCCN)NC(=O)[C@@H](CCC(=O)O)NC(=O)[C@H](N)CCC(=O)O)C(=O)N[C@H](CCCCNC(=O)CCC(=O)NCCC[C@@H](NC(=O)CC[C@H](NC(=O)N[C@@H](CCC(=O)O)C(=O)O)C(=O)O)C(=O)O)C(=O)O)cc1)C(C)(C)C [SiFA-PSMA ligand 03 e] (H-[dE][dE][dOrn][dDap](Benzoyl(4-SiFtBu2))[dK]([Suc-X1])-OH) | −3.40 ± 0.17 | 111.98 ± 3.90 | 97.5 | 8.5 ± 1.2 | –
CC(C)(C)[Si](F)(c1ccc(C(=O)NC[C@@H](NC(=O)[C@@H](CCCCN)NC(=O)[C@@H](CCC(=O)O)NC(=O)[C@H](N)CCC(=O)O)C(=O)N[C@H](CCCCNC(=O)CCC(=O)NCCC[C@@H](NC(=O)CC[C@H](NC(=O)N[C@@H](CCC(=O)O)C(=O)O)C(=O)O)C(=O)O)C(=O)O)cc1)C(C)(C)C [SiFA-PSMA ligand 03 f] (H-[dE][dE][dK][dDap](Benzoyl(4-SiFtBu2))[dK]([Suc-X1])-OH) | −3.43 ± 0.02 | 94.24 ± 6.01 | 96.9 | 6.9 ± 1 | –
CC(C)(C)[Si](F)(c1ccc(C(=O)NC[C@@H](NC(=O)CNC(=O)[C@@H](CCC(=O)O)NC(=O)[C@H](N)CCC(=O)O)C(=O)N[C@H](CCCCNC(=O)CCC(=O)NCCC[C@@H](NC(=O)CC[C@H](NC(=O)N[C@@H](CCC(=O)O)C(=O)O)C(=O)O)C(=O)O)C(=O)O)cc1)C(C)(C)C [SiFA-PSMA ligand 03 g] | −3.56 ± 0.04 | 121.44 ± 3.72 | 98.4 | 11.9 ± 2 | –
C[C@H](O)[C@@H](NC(=O)[C@@H](CCC(=O)O)NC(=O)[C@H](N)CCC(=O)O)C(=O)N[C@H](CNC(=O)c1ccc([Si](F)(C(C)(C)C)C(C)(C)C)cc1)C(=O)N[C@H](CCCCNC(=O)CCC(=O)NCCC[C@@H](NC(=O)CC[C@H](NC(=O)N[C@@H](CCC(=O)O)C(=O)O)C(=O)O)C(=O)O)C(=O)O [SiFA-PSMA ligand 03 h] (H-[dE][dE][dT][dDap](Benzoyl(4-SiFtBu2))[dK]([Suc-X1])-OH) | −3.66 ± 0.03 | 107.42 ± 3.66 | 97.8 | 10.7 ± 2.1 | –
CC(C)(C)[Si](F)(c1ccc(C(=O)NC[C@@H](NC(=O)[C@@H](Cc2ccccc2)NC(=O)[C@@H](CCC(=O)O)NC(=O)[C@H](N)CCC(=O)O)C(=O)N[C@H](CCCCNC(=O)CCC(=O)NCCC[C@@H](NC(=O)CC[C@H](NC(=O)N[C@@H](CCC(=O)O)C(=O)O)C(=O)O)C(=O)O)C(=O)O)cc1)C(C)(C)C [SiFA-PSMA ligand 03 i] (H-[dE][dE][dF][dDap](Benzoyl(4-SiFtBu2))[dK]([Suc-X1])-OH) | −2.30 ± 0.03 | 50.33 ± 2.97 | 98.9 | 20.6 ± 1.8 | –
CC(C)(C)[Si](F)(c1ccc(C(=O)NC[C@@H](NC(=O)[C@H](N)CNC(=O)[C@@H](CCC(=O)O)NC(=O)[C@H](N)CCC(=O)O)C(=O)N[C@H](CCCCNC(=O)CCC(=O)NCCC[C@@H](NC(=O)CC[C@H](NC(=O)N[C@@H](CCC(=O)O)C(=O)O)C(=O)O)C(=O)O)C(=O)O)cc1)C(C)(C)C [SiFA-PSMA ligand 04] | −3.33 ± 0.11 | 124.49 ± 2.61 | 97.9 | – | IC50 [5]: 12.2 ± 1.9 nM
CC(C)(C)[Si](F)(c1ccc(C(=O)NC[C@@H](NC(=O)[C@@H](CCCNC(N)=O)NC(=O)[C@@H](CCCNC(N)=O)NC(=O)[C@H](N)CCCNC(N)=O)C(=O)N[C@H](CCCCNC(=O)CCC(=O)NCCC[C@@H](NC(=O)CC[C@H](NC(=O)N[C@@H](CCC(=O)O)C(=O)O)C(=O)O)C(=O)O)C(=O)O)cc1)C(C)(C)C [SiFA-PSMA ligand 05] (H-[dCit][dCit][dCit][dDap](Benzoyl(4-SiFtBu2))[dK]([Suc-X1])-OH) | −3.17 ± 0.02 | 90.13 ± 6.13 | 95.7 | – | IC50 [5]: 16.2 ± 2 nM
CC(C)(C)[Si](F)(c1ccc(C(=O)N[C@H](CC(=O)N[C@H](CCCCNC(=O)CCC(=O)NCCC[C@@H](NC(=O)CC[C@H](NC(=O)N[C@@H](CCC(=O)O)C(=O)O)C(=O)O)C(=O)O)C(=O)O)C(=O)N[C@H](CCCCNC(=O)CCC(=O)NCCC[C@@H](NC(=O)CC[C@H](NC(=O)N[C@@H](CCC(=O)O)C(=O)O)C(=O)O)C(=O)O)C(=O)O)cc1)C(C)(C)C [SiFA-PSMA ligand 06] | −3.77 ± 0.04 | 270.03 ± 16.10 | ≥98.9 | – | IC50 [5]: 7.4 ± 1.9 nM
O=C(O)CC[C@H](NC(=O)N[C@@H](CCCCNC(=O)[C@H](Cc1ccc2ccccc2c1)NC(=O)[C@H]1CC[C@H](CNC(=O)CN2CCN(CC(=O)O)CCN(CC(=O)O)CCN(CC(=O)O)CC2)CC1)C(=O)O)C(=O)O [[^68Ga]PSMA-617, PSMA-617, metal not drawn] | – | – | – | – | logP(o/w) [6]: −4.30 ± 0.10
O=C(O)CC[C@H](NC(=O)N[C@@H](CCCCNC(=O)c1ccc([18F])nc1)C(=O)O)C(=O)O [[^natF/^18F]DCFPyI, DCFPyI] | – | – | – | – | logP(o/w) [6]: −3.4
PSMA-1007 [[^natF/^18F]PSMA-1007] | – | – | – | – | logP(o/w) [6]: −1.6; IC50 [7]: 4.2 ± 0.5 nM
SiFA-Asn(AcNH-β-Glc)-PEG-Tyr^3-octreotate | – | – | – | – | log P(ow) [8]: 0.96
